Where “and” joins values, the source holds several entries; their conditions need not be identical. Equal entries are not always repeated. Where two headings read alike, the source gives them in different places.
What was measured:
[1] = system: SARS-CoV-2; test: microbe, parasite or virus in culture; format: cell-based; conditions: for EC50: Severe acute respiratory syndrome coronavirus 2, 24 h, read-out: SARS-CoV-2 Huh-7ACE2 EC50
[2] = molecular target: T1, SARS-CoV-2 3CL protease (Severe acute respiratory syndrome coronavirus 2, UniProt P0DTD1); test: biochemical; conditions: for IC50 / % SARS-CoV-2 3CL activity: 20 nM protease; for IC50: read-out: SARS-CoV-2 3CLpro IC50; for % SARS-CoV-2 3CL activity / Normalized SARS-CoV-2 3CL protease activity: replicates; for Normalized SARS-CoV-2 3CL protease activity: 0.2 µM protease with 50 µM tested compound
[3] = system: SARS-CoV-2; test: microbe, parasite or virus in culture; format: cell-based; conditions: Severe acute respiratory syndrome coronavirus 2, Vero C1008, read-out: SARS-CoV-2 Vero E6 EC50
[4] = molecular target: T1, SARS-CoV-2 3CL protease; test: biochemical; conditions: for kinact/KI: read-out: SARS-CoV-2 3CLpro kinact/KI
[5] = molecular target: T1, SARS-CoV-2 3CL protease; test: cell-based
[6] = Concentration of inhibitor (nM) 0.19382
[7] = Concentration of inhibitor (nM) 0.49485
[8] = Concentration of inhibitor (nM) 0.79588
[9] = Concentration of inhibitor (nM) 1.09691
[10] = Concentration of inhibitor (nM) 1.39794
[11] = Concentration of inhibitor (nM) 1.69897
[12] = Concentration of inhibitor (nM) 2
[13] = Concentration of inhibitor (nM) 2.30103
[14] = Concentration of inhibitor (nM) -0.10721
[15] = Concentration of inhibitor (nM) -0.40824
[16] = Concentration of inhibitor (nM) 2.60206

SMILES | inhibition of SARS-CoV-2 (Figure s17b dose-response, replicate values) [1] | EC50 [1] [nM] | IC50 [2] [nM] | normalized activity, dose-response curve (Figure S16) [2, 6] | normalized activity, dose-response curve (Figure S16) [2, 7] | normalized activity, dose-response curve (Figure S16) [2, 8] | normalized activity, dose-response curve (Figure S16) [2, 9] | normalized activity, dose-response curve (Figure S16) [2, 10] | normalized activity, dose-response curve (Figure S16) [2, 11] | normalized activity, dose-response curve (Figure S16) [2, 13] | normalized activity, dose-response curve (Figure S16) [2, 14] | normalized activity, dose-response curve (Figure S16) [2, 15] | observed inactivation rate vs compound concentration (Figure S19, replicate values) [4] | kinact/KI [4] [M⁻¹ s⁻¹] | Absorbance (crystal violet), SARS-CoV-2 3CLpro [5] | Normalized SARS-CoV-2 3CL protease activity [2] | further results
CC(C)C[C@H](NC(=O)OCc1cccc2ccccc12)C(=O)N[C@@H](C[C@@H]1CCNC1=O)C(O)S(=O)(=O)O (stereo partly shown) [EB55] | 100.856 and 96.5428 and 101.322 and 91.4468 and 90.1295 and 92.8292 and 65.5151 and 69.1898 and 72.8142 and 38.0936 and 42.5735 and 35.1981 and 28.1354 and 24.4902 and 21.8952 and 10.9114 and 19.9799 and 11.8441 and 9.792 and 14.2234 and 10.7567 | 11 | 72 | 97.6947 and 91.9164 | 90.7787 and 89.6887 | 89.0003 and 83.5464 | 84.4555 and 78.5499 | 77.2102 and 70.0207 | 64.1027 and 59.773 | 16.7117 and 14.6768 | 100.329 and 102.132 | 100 | 0.0457 and 0.0269 and 0.0571 and -0.0002 and 0.0258 and 0.0554 and 0.0425 and 0.0417 and 0.0134 and 0.0205 and 0.022 and 0.0066 | 21700 |  |  | normalized activity, dose-response curve (Figure S16) [2, 12]: 47.4055 and 42.8102; EC50 [3]: 3000 nM
CC(C)C[C@H](NC(=O)OCc1cc(F)c(F)cc1F)C(=O)N[C@@H](C[C@@H]1CCNC1=O)C(O)S(=O)(=O)O (stereo partly shown) [NK01-48] | 125.494 and 126.964 and 86.3185 and 118.605 and 134.4 and 122.016 and 84.6265 and 61.89 and 119.128 and 54.4703 and 35.4275 and 15.416 and 32.4697 and 30.0193 and 47.7694 and 0.4554 and -12.5084 and -5.078 and 34.0338 and 10.0006 and 6.443 | 15 | 92 | 99.5986 and 99.2546 | 84.289 and 78.0963 | 92.7179 and 89.3922 | 76.6628 and 70.7569 | 79.2431 and 69.9541 | 62.156 and 55.5619 | 33.7729 and 21.5023 | 97.1904 and 78.0963 | 97.1904 and 100 | 0.0181 and 0.0442 and 0.0252 and 0.0284 and 0.021 and 0.0128 and 0.0148 and 0.0158 and 0.0136 and 0.0037 and 0.0168 and 0.02 and 0.0021 and 0.0084 and 0.0011 | 5000 |  |  | normalized activity, dose-response curve (Figure S16) [2, 12]: 48.3945 and 50.2294; normalized activity, dose-response curve (Figure S16) [2, 16]: 18.3486 and 12.328
O=C(N[C@@H](CC1CC1)C(=O)N[C@@H](C[C@@H]1CCNC1=O)C(O)S(=O)(=O)O)OCc1cccc(Cl)c1 (stereo partly shown) [NK01-57] | 104.54 and 74.4176 and 64.8123 and 55.4072 and 79.8077 and 89.5745 and 61.4462 and 18.0183 and 12.437 and -10.4634 and -16.0501 and 3.693 and 24.8584 and -12.4097 and 6.795 and 29.8589 and -3.6952 and 33.5228 and 9.378 and -5.3463 and 36.5619 | 92 | 13 | 95.6172 and 86.9248 | 85.9021 and 78.3053 | 79.0358 and 66.0336 | 62.3083 and 48.2104 | 43.3163 and 27.8305 | 26.2235 and 13.9518 | 6.939 and 9.715 | 107.889 and 102.703 | 100 and 101.315 | 0.0175 and 0.0065 and 0.0112 and -0.01176 and 0.0254 and -0.00163 and 0.0094 and -0.00166 and -0.05051 and -0.00614 and -0.01353 and -0.00565 and -0.00112 and -0.0108 and -0.00266 and -0.00784 and 0.0038 and -0.0081 and -0.00313 and -0.00276 and 0.0019 |  |  |  | normalized activity, dose-response curve (Figure S16) [2, 16]: 9.934 and 9.2038
O=C(N[C@@H](CC1CC1)C(=O)N[C@@H](C[C@@H]1CCNC1=O)C(O)S(=O)(=O)O)OCc1ccccc1Cl (stereo partly shown) [NK01-69] | 112.139 and 77.9057 and 91.5513 and 79.8842 and 49.1022 and 70.5924 and 62.1924 and 62.9155 and 78.4113 and -0.7628 and 38.0643 and 11.5151 and -8.426 and 17.4096 and 4.8166 and -9.308 and 10.7894 and 11.3275 and 55.1502 and 29.5769 and 12.5491 | 35 | 24 | 88.5666 and 86.5188 | 72.8669 and 79.1809 | 75 and 74.3174 | 65.1024 and 60.8362 | 47.5256 and 39.3345 | 32.1672 and 24.5734 | 4.608 and 4.693 | 106.997 and 100.683 | 89.5904 and 100 | 0.0682 and 0.0478 and 0.0347 and 0.0227 and 0.0119 and 0.047 and -0.00793 and 0.0043 and 0.0066 and 0.0454 and 0.0603 and 0.0339 and 0.0459 and 0.0266 and 0.0345 and 0.0301 and 0.0444 and 0.0675 | 70000 |  |  | 
O=C(Oc1cncc(Cl)c1)c1ccco1 [T71] |  |  | 11 |  |  |  |  |  |  |  |  |  |  |  | 0.16 and 0.1636 | 0.04328 and 0.01902 and 0.03148 | % SARS-CoV-2 3CL activity ([2]; log10[nM] 0.19382): 86.3659% and 89.8434%; % SARS-CoV-2 3CL activity ([2]; log10[nM] 0.49485): 80.2845% and 76.3012%; % SARS-CoV-2 3CL activity ([2]; log10[nM] 0.79588): 65.6694% and 65.2855%; % SARS-CoV-2 3CL activity ([2]; log10[nM] 1.09691): 47.7195% and 48.4083%; % SARS-CoV-2 3CL activity ([2]; log10[nM] 1.39794): 16.1844% and 18.9995%; % SARS-CoV-2 3CL activity ([2]; log10[nM] 1.69897): 0.4414% and 4.144%; % SARS-CoV-2 3CL activity ([2]; log10[nM] 2): -3.629% and 1.061%; % SARS-CoV-2 3CL activity ([2]; log10[nM] 2.30103): -2.6974% and 0.4042%; % SARS-CoV-2 3CL activity ([2]; log10[nM] 2.60206): -1.9127% and -0.758%; % SARS-CoV-2 3CL activity ([2]; log10[nM] 2.90309): 0%; % SARS-CoV-2 3CL activity ([2]; log10[nM] -0.10721): 95.0956% and 96.5639%; % SARS-CoV-2 3CL activity ([2]; log10[nM] -0.40824): 100%
O=C(/C=C/c1ccc(F)cc1)Oc1cc(Cl)c[nH]c1=O [Z14] |  |  |  |  |  |  |  |  |  |  |  |  |  |  | 0.1689 and 0.1739 | 1.002 and 0.9823 and 0.9751 | 
CC(=O)N1CCc2cc(C(=O)Oc3cncc(Cl)c3)ccc21 [Z21] |  |  |  |  |  |  |  |  |  |  |  |  |  |  | 0.1721 and 0.1614 | 0.2321 and 0.2984 | 

From PMC8989888, “Development of optimized drug-like small molecule inhibitors of the SARS-CoV-2 3CL protease for treatment of COVID-19” (Nature Communications, 2022)
